From article PMC10888103, “Enhanced High-Fructose Corn Syrup Production: Immobilizing Serratia marcescens Glucose Isomerase on MOF (Co)-525 Reduces Co^2+ Dependency in Glucose Isomerization to Fructose” (Foods, 2024)

Tested on: T1, Serratia marcescens glucose isomerase (SmGI)
T1 construct: gene xylA; native, from S. marcescens lysate; 70 °C heat step and 10 kD ultrafiltration only (no chromatography); main SDS-PAGE band about 60 kD
Test: fructose formation by fructose assay kit, Lineweaver-Burk; heat-treated, ultrafiltered extract
Format: biochemical
Settings: free enzyme, no added Co2+; 60 °C, 1 h; glucose 2.5-400 mM; pH of kinetic assay not stated
Excerpt: fructose formation by fructose assay kit, Lineweaver-Burk; heat-treated, ultrafiltered extract on Serratia marcescens glucose isomerase (SmGI)

## OC[C@H]1OC(O)[C@H](O)[C@@H](O)[C@@H]1O (stereo partly shown) [glucose]
  Km: 44.3 ± 3.1 mM
